Earlier results on two compounds are cited in PMC10025373, “Red ginseng dietary fiber promotes probiotic properties of Lactiplantibacillus plantarum and alters bacterial metabolism” (Frontiers in Microbiology, 2023).

Molecules are shown by their SMILES.

Data set [1] has as its system actomyosin motor. Also noted: method as in Komatsu et al., 2004. Conditions: ref Komatsu et al., 2004.
Data set [2] relates to E. coli. The note with it: ref Lens et al., 2016.
The subject of data set [3] is Staphylococcus aureus. The note with it: ref Lens et al., 2016.

Take `CCCCCCO` [Hexanol]: the “function of the actomyosin motor” value in data set [1] is “modulates the function of the actomyosin motor”. For `CCCCOC(C)=O` [butyl acetate], the antimicrobial activity entry in data set [2] and in data set [3] was “antimicrobial activity” throughout.
